Assay results published in US12576107B2, “Methods of treating chronic inflammatory diseases” (METIMEDI PHARMACEUTICALS CO., LTD., priority 2018, dated 2026).

Legend:
[1] = test system: LPS-damaged brain of rats; assay: Alzheimer and stroke model, intracranial injection of LPS; format: in vivo, Sprague-Dawley (SD) rats; conditions: 2 mg/kg daily subcutaneous 21 days
Experimental: Animals. […] Eight-week old male Sprague-Dawley (SD) rats were obtained from Samtako Co. (Osan, Gyeonggi-do, Republic of Korea) and bred under specific-pathogen-free (SPF) conditions. All animals were maintained in a 12-hour light/dark cycle at 22-25° C. with free access to food and water.
Dissolve 1 mg of LPS powder in 1 ml of saline. Keep the tubes on ice if LPS is going to be used fresh. For long storage, screw cap vials are preferred. The aliquots were stored at −20° C. Calcium lactate was purchased from Sigma Aldrich (St. Louis, MO, USA).
Intracranial injection of LPS. The animals were placed in a small acrylic cage that was coupled with an anesthesia machine that allowed them to breathe freely under gaseous anesthesia (2% isoflurane, Spartanburg, SC, USA). […] The animal fur of head was shaved with an electric clipper, and the skin was swabbed with iodine. LPS was kept it on ice before use. All the surgical materials disinfected with 70% ethanol. Hamilton syringe barrel inner space was cleaned with distilled water and 70% ethanol. The Hamilton syringe was placed in the syringe holder. The animal in the stereotaxic apparatus was placed on horizontal position. A midline incision (about 1 cm) on the skin of head was made with the scalpel. The needle of Hamilton syringe was placed on the bregma. Read the three coordinates (AP: −3.6, LM: 2.0, and DV: −3.8) on the manipulator (in mm) and write them down; this was used for starting point. Slowly, set the DV coordinate of the injection point; this inserts the needle tip into the brain until the injection point. The LPS solution (2 μl) was released at an approximate flow rate of 0.5 μl/min. After the injection, the needle was removed very slowly. The wound area was closed by suturing, and then disinfectant was applied. The rat was marked for further identification.
Immunohistochemistry. Brain tissue was sectioned at 5 μm on cryostat and stained for histological examination. Microscopic images were obtained at 200× magnification. […]

hypoxia-mediated factors = assay: Liver CID in vitro experiment, Western blot in HepG2 cells; format: cell-based, Human; conditions: 2.5 mM, HepG2 cells (liver epithelium)
Experimental: Human Hepatocellular carcinoma cell line, HepG2, was purchased from American Type Culture Collection (Manassas, VA, USA). The HepG2 cells were maintained in RPMI 1640 containing 10% fetal bovine serum (Life Technologies, Gaithersburg, MD, USA), 100 IU/ml penicillin, and 100 μg/ml streptomycin (Welgene, Daegu, South Korea).
To prepare whole cell lysate, cells were lysed with lysis buffer (1% NP-40, 0.25% sodium deoxycholate, 150 mM NaCl, 1 mM EDTA, 1% Triton X-100, 50 mM Tris-HCl (pH 7.4), 10% Glycerol) with protease inhibitor cocktail (Roche, Basel, Switzerland) and phosphatase inhibitors (NA3VO4 1 mM, NaF 100 mM). Then, protein concentration was measured using the Bicinchoninic acid (BCA) assay kit (Thermo Scientific, Waltham, MA). Whole cell or nuclear lysates were transferred onto polyvinylidene fluoride membranes (Merck Millipore, Billerica, MA, USA). After blocking in 5% non-fat milk (Bio-Rad, Hercules, CA, USA) for 1 h, the membranes were incubated overnight at 4° C. with primary antibody diluted in TBST containing 100 mM Tris-HCl (pH 7.5), 1.5 M NaCl, and 0.5% Tween-20 obtained from Sigma-Aldrich, to which 5% BSA and 0.1% sodium azide (Sigma-Aldrich) had been added. Specific primary antibodies to HIF-1α (1:1000), HIF-2α (1:1000), LDH-A (1:1000), LDH-B (1:1000), TLR-4 (1:1000), NF-κB (1:1000), VEGF (1:1000), α-tubulin (1:1000), Actin (1:1000), and GAPDH (1:5000). […]

SMILES: CC(O)C(=O)[O-].CC(O)C(=O)[O-].[Ca+2] (stereo not shown) [calcium lactate]
- damaged brain tissue [1]: Recovery
- inflammatory reaction, which exacerbates Alzheimer's and stroke [1]: greatly reduced
- microglia infiltration (Iba-1) in brain [1]: reduction
- hypoxia-mediated factors, Western blot (hypoxia-mediated factors): changed
